From US6274715A, “Tricyclic erythromycin derivatives” (priority 1997, dated 2001)
In brackets after ≈: the same amount, converted by molar mass. Where two headings read alike, the source gives them in different places.

Legend:
Format in all cases: cell-based
[1] = tested on: STREPTOCOCCUS PYOGENES PIU 2548; experiment: In vitro antibacterial activity, MIC, BHI agar dilution; conditions: S. pyogenes PIU 2548, unit assumed
[2] = tested on: PSEUDOMONAS AERUGINOSA K799/WT; experiment: as above; conditions: P. aeruginosa K799/WT
[3] = tested on: STAPHYLOCOCCUS AUREUS NCTC10649M; experiment: as above; conditions: S. aureus NCTC10649M
[4] = tested on: ESCHERICHIA COLI SS; experiment: as above; conditions: E. coli SS, unit assumed
[5] = tested on: CANDIDA ALBICANS CCH 442; experiment: as above
[6] = tested on: PSEUDOMONAS AERUGINOSA BMH10; experiment: as above
[7] = tested on: STAPHYLOCOCCUS AUREUS CMX 642A; experiment: as above; conditions: S. aureus CMX 642A, unit assumed
[8] = tested on: STAPHYLOCOCCUS AUREUS ATCC 6538P; experiment: as above; conditions: S. aureus ATCC 6538P, 35-37° C., 20 to 24 hours
[9] = tested on: PSEUDOMONAS AERUGINOSA K799/61; experiment: as above; conditions: P. aeruginosa K799/61, unit assumed
[10] = tested on: KLEBSIELLA PNEUMONIAE ATCC 8045; experiment: as above
[11] = tested on: STREPTOCOCCUS BOVIS A-5169; experiment: as above
[12] = tested on: M[…] ATCC 9341; experiment: as above
Description: (§1) Representative compounds of the present invention were assayed in vitro for antibacterial activity as follows: Twelve petri dishes containing successive aqueous dilutions of the test compound mixed with 10 mL of sterilized Brain Heart Infusion (BHI) agar (Difco 0418-01-5) were prepared. Each plate was inoculated with 1:100 (or 1:10 for slow-growing strains, such as Micrococcus and Streptococcus) dilutions of up to 32 different microorganisms, using a Steers replicator block. The inoculated plates were incubated at 35-37° C. for 20 to 24 hours. In addition, a control plate, using BHI agar containing no test compound, was prepared and incubated at the beginning and end of each test.
(§2) An additional plate containing a compound having known susceptibility patterns for the organisms being tested and belonging to the same antibiotic class as the test compound was also prepared and incubated as a further control, as well as to provide test-to-test comparability. Erythromycin A was used for this purpose.
(§3) After incubation, each plate was visually inspected. The minimum inhibitory concentration (MIC) was defmed as the lowest concentration of drug yielding no growth, a slight haze, or sparsely isolated colonies on the inoculum spot as compared to the growth control.

[13] = tested on: M[…] ATCC 4698; experiment: as above; conditions: M. luteus ATCC 4698, unit assumed
Description: as §1, §2, §3

[14] = tested on: EN[…] ATCC 8043; experiment: as above; conditions: E. faecium ATCC 8043, unit assumed
Description: as §1, §2, §3

[15] = tested on: STR[…] 508; experiment: as above; conditions: S. agalactiae CMX 508, unit assumed
Description: as §1, §2, §3

[16] = tested on: PSEUDOMONAS CEPACIA 296I; experiment: as above; conditions: P. cepacia 296I
[17] = tested on: STAPHYLOCOCCUS AUREUS CMX 553; experiment: as above
[18] = tested on: STREPTOCOCCUS PYOGENES 930; experiment: as above
[19] = tested on: PSEUDOMONAS AERUGINOSA DPHD-5263; experiment: as above; conditions: P. aeruginosa DPHD-5263, unit assumed
[20] = tested on: STAPHYLOCOCCUS AUREUS 1775; experiment: as above; conditions: S. aureus 1775, unit assumed
[21] = tested on: ESCHERICHIA COLI KNK 437; conditions: unit assumed
[22] = tested on: STAPHYLOCOCCUS AUREUS A5177; experiment: In vitro antibacterial activity, MIC, BHI agar dilution
[23] = tested on: STAPHYLOCOCCUS EPIDERMIDIS 3519; conditions: S. epidermidis 3519; BHI agar; unit assumed
[24] = tested on: STREPTOCOCCUS PYOGENES EES61; experiment: In vitro antibacterial activity, MIC, BHI agar dilution; conditions: S. pyogenes EES61, unit assumed
[25] = tested on: STAPHYLOCOCCUS AUREUS A-5278; experiment: as above; conditions: S. aureus A-5278, unit assumed
[26] = tested on: ESCHERICHIA COLI H560; experiment: as above; conditions: E. coli H560, unit assumed
[27] = tested on: PSEUDOMONAS AERUGINOSA 5007; experiment: as above
[28] = tested on: PROVIDENCIA STUARTII CMX 640; conditions: P. stuartii CMX 640; BHI agar; unit assumed
[29] = tested on: PSEUDOMONAS AERUGINOSA DPHD-2862; experiment: In vitro antibacterial activity, MIC, BHI agar dilution; conditions: P. aeruginosa DPHD-2862, unit assumed
[30] = tested on: ESCHERICHIA COLI DC-2; experiment: as above
[31] = tested on: ENTEROBACTER AEROGENES ATCC 13048; experiment: as above
[32] = tested on: MYCOBACTERIUM SMEGMATIS ATCC 114; experiment: as above; conditions: M. smegmatis ATCC 114, unit assumed
[33] = tested on: ESCHERICHIA COLI JUHL; conditions: E. coli JUHL; BHI agar; unit assumed
[34] = C. albicans CCH 442, unit assumed
[35] = P. aeruginosa BMH10, unit assumed
[36] = K. pneumoniae ATCC 8045, unit assumed
[37] = M. luteus ATCC 9341, unit assumed
[38] = S. aureus CMX 553, unit assumed
[39] = P. aeruginosa 5007, unit assumed

Compound | MIC [1] | MIC ([2]; unit assumed) | MIC ([3]; unit assumed) | MIC [4] | MIC [5, 34] | MIC [6, 35] | MIC [7] | MIC ([8]; unit assumed) | MIC [9] | MIC [10, 36] | MIC ([11]; S. bovis A-5169, unit assumed) | MIC [12, 37] | MIC [13] | MIC [14] | MIC [15] | MIC ([16]; unit assumed) | MIC [17, 38] | MIC ([18]; S. pyogenes 930, unit assumed) | MIC [23] | MIC [26] | further results
CC[C@H]1OC(=O)[C@H](C)C(=O)[C@H](C)[C@@H](O[C@@H]2O[C@H](C)C[C@H](N(C)C)[C@H]2O)[C@](C)(OC)C[C@@H](C)C2=NC[C@@H](Cc3ccccc3)N3C(=O)O[C@@]1(C)[C@H]3[C@H]2C [Example 6] | 0.39 µg/mL (≈ 0.536 µM) | 25 µg/mL (≈ 34.3 µM) | 0.1 µg/mL (≈ 0.137 µM) | 0.02 µg/mL (≈ 0.0275 µM) | > 100 µg/mL | 50 µg/mL (≈ 68.7 µM) | 0.1 µg/mL (≈ 0.137 µM) | 0.1 µg/mL (≈ 0.137 µM) | 0.39 µg/mL (≈ 0.536 µM) | 12.5 µg/mL (≈ 17.2 µM) | 0.01 µg/mL (≈ 0.0137 µM) | 0.02 µg/mL (≈ 0.0275 µM) | 0.1 µg/mL (≈ 0.137 µM) | 0.1 µg/mL (≈ 0.137 µM) | 0.02 µg/mL (≈ 0.0275 µM) | 50 µg/mL (≈ 68.7 µM) | 0.2 µg/mL (≈ 0.275 µM) | > 100 µg/mL | 0.1 µg/mL (≈ 0.137 µM) | 3.1 µg/mL (≈ 4.26 µM) | MIC [19]: 12.5 µg/mL (≈ 17.2 µM); MIC [20]: > 100 µg/mL; MIC [21]: 6.2 µg/mL (≈ 8.52 µM); MIC ([22]; S. aureus A5177): 0.05 µg/mL (≈ 0.0687 µM); MIC [24]: 0.02 µg/mL (≈ 0.0275 µM); MIC [25]: > 100 µg/mL; MIC [27, 39]: 100 µg/mL (≈ 137 µM); MIC [28]: 100 µg/mL (≈ 137 µM); MIC [29]: 100 µg/mL (≈ 137 µM)
CC[C@H]1OC(=O)[C@H](C)C(=O)[C@H](C)[C@@H](O[C@@H]2O[C@H](C)C[C@H](N(C)C)[C@H]2O)[C@](C)(OC)C[C@@H](C)C2=NC3CN(CCCc4ccccc4)CC3N3C(=O)O[C@@]1(C)[C@H]3[C@H]2C (stereo partly shown) [Example 112] | 0.2 µg/mL (≈ 0.251 µM) |  |  |  |  |  | 0.78 µg/mL (≈ 0.979 µM) |  | 0.78 µg/mL (≈ 0.979 µM) |  |  |  | 0.2 µg/mL (≈ 0.251 µM) |  | 0.02 µg/mL (≈ 0.0251 µM) |  |  |  | 0.78 µg/mL (≈ 0.979 µM) | 50 µg/mL (≈ 62.7 µM) | MIC ([2]; listed as Ex 112, unit assumed): > 100 µg/mL; MIC ([30]; E. coli DC-2, listed as Ex 112, unit assumed): > 100 µg/mL; MIC ([3]; listed as Ex 112, unit assumed): 0.78 µg/mL (≈ 0.979 µM); MIC ([5]; C. albicans CCH 442, listed as Ex 112, unit assumed): 100 µg/mL (≈ 125 µM); MIC ([6]; P. aeruginosa BMH10, listed as Ex 112, unit assumed): 100 µg/mL (≈ 125 µM); MIC ([8]; listed as Ex 112, unit assumed): 0.39 µg/mL (≈ 0.489 µM); MIC ([10]; K. pneumoniae ATCC 8045, listed as Ex 112, unit assumed): 100 µg/mL (≈ 125 µM); MIC ([11]; S. bovis A-5169, listed as Ex 112, unit assumed): ≤ 0.005 µg/mL; MIC ([12]; M. luteus ATCC 9341, listed as Ex 112, unit assumed): 0.1 µg/mL (≈ 0.125 µM); MIC ([31]; E. aerogenes ATCC 13048, listed as Ex 112, unit assumed): 100 µg/mL (≈ 125 µM); MIC ([16]; listed as Ex 112, unit assumed): 100 µg/mL (≈ 125 µM); MIC ([17]; S. aureus CMX 553, listed as Ex 112, unit assumed): 0.78 µg/mL (≈ 0.979 µM); MIC ([18]; S. pyogenes 930, listed as Ex 112, unit assumed): > 100 µg/mL; MIC [32]: 0.39 µg/mL (≈ 0.489 µM); MIC ([21]; E. coli KNK 437, BHI agar, listed as Ex 112): 100 µg/mL (≈ 125 µM); MIC ([22]; S. aureus A5177, listed as Ex 112, unit assumed): 0.39 µg/mL (≈ 0.489 µM); MIC ([27]; P. aeruginosa 5007, listed as Ex 112, unit assumed): > 100 µg/mL
CC[C@H]1OC(=O)[C@H](C)C(=O)[C@H](C)[C@@H](O[C@@H]2O[C@H](C)C[C@H](N(C)C)[C@H]2O)[C@](C)(OC)C[C@@H](C)C2=NC(COCc3ccccc3)C(COCc3ccccc3)N3C(=O)O[C@@]1(C)[C@H]3[C@H]2C (stereo partly shown) [Example 146] | 0.78 µg/mL (≈ 0.888 µM) | 100 µg/mL (≈ 114 µM) | 0.39 µg/mL (≈ 0.444 µM) | 0.78 µg/mL (≈ 0.888 µM) | 50 µg/mL (≈ 56.9 µM) | 100 µg/mL (≈ 114 µM) | 0.39 µg/mL (≈ 0.444 µM) | 0.39 µg/mL (≈ 0.444 µM) | 0.78 µg/mL (≈ 0.888 µM) | 100 µg/mL (≈ 114 µM) | 0.05 µg/mL (≈ 0.0569 µM) | 0.05 µg/mL (≈ 0.0569 µM) | 0.2 µg/mL (≈ 0.228 µM) | 0.05 µg/mL (≈ 0.0569 µM) | 0.05 µg/mL (≈ 0.0569 µM) | 25 µg/mL (≈ 28.5 µM) | 0.39 µg/mL (≈ 0.444 µM) | 12.5 µg/mL (≈ 14.2 µM) | 0.39 µg/mL (≈ 0.444 µM) | 25 µg/mL (≈ 28.5 µM) | MIC ([30]; E. coli DC-2, unit assumed): 100 µg/mL (≈ 114 µM); MIC ([31]; E. aerogenes ATCC 13048, unit assumed): > 100 µg/mL; MIC [33]: 50 µg/mL (≈ 56.9 µM); MIC [32]: 0.39 µg/mL (≈ 0.444 µM); MIC [19]: 100 µg/mL (≈ 114 µM); MIC [20]: 50 µg/mL (≈ 56.9 µM); MIC ([21]; E. coli KNK 437, BHI agar): 25 µg/mL (≈ 28.5 µM); MIC [24]: 0.05 µg/mL (≈ 0.0569 µM); MIC [25]: 50 µg/mL (≈ 56.9 µM); MIC [27, 39]: 100 µg/mL (≈ 114 µM); MIC [28]: 100 µg/mL (≈ 114 µM); MIC [29]: 100 µg/mL (≈ 114 µM)
